2 molecules from patent US20140066444A1, “Method of Treating Cancer” (Exelixis, Inc., priority 2010, published 2014) can be followed below.

Series [1] relates to pancreatic neuroendocrine tumor model. In words: murine pancreatic neuroendocrine tumor model.
The next series concerns MET and VEGFR signaling. Nature of the series: suppression of MET and VEGFR signaling.
A further series can be described thus: oral bioavailability. Particulars: in vivo.
Another series has as its system xenograft tumor models. In words: xenograft tumor models.
Series [2] deals with endothelial cells and tumor cells. In words: induction of apoptosis.
In series [3] the test system is metastatic castration-resistant prostate cancer (CRPC) with bone metastases. Nature of the series: case studies: metastatic CRPC patients treated with Compound 1. Type of series: in vivo, human. To be noted: three metastatic CRPC patients. The text has this: Bone metastases are present in 90% of patients with castration-resistant prostate cancer (CRPC), causing significant morbidity and mortality.

A short description of series [4]: gravimetric vapor sorption (GVS) study. To be noted: 25° C. and 90% humidity. It counts as physicochemical. The procedure: A gravimetric vapor sorption (GVS) study was run using a standard procedure. Samples were run on a dynamic vapor sorption analyzer (Surface Measurement Systems) running DVSCFR software. Sample sizes were typically 10 mg. A moisture adsorption desorption isotherm was performed as outlined below. The standard isotherm experiment, performed at 25° C., is a two-cycle run, starting at 40% RH, increasing humidity to 90% RH, decreasing humidity to 0% RH, increasing humidity again to 90% RH, and finally decreasing humidity to 0% RH in 10% RH intervals.

As to `COc1cc2c(Oc3ccc(NC(=O)C4(C(=O)Nc5ccc(F)cc5)CC4)cc3F)ccnc2cc1OCCCN1CCOCC1` [Compound 1], in series [1], the overall survival entry is given as “substantially improves”; the “tumor invasiveness and metastasis” value was “significantly reduces”. Besides, the “MET and VEGFR signaling” value in the series with MET and VEGFR signaling was “suppresses”. Besides, the oral bioavailability entry in the series “oral bioavailability” is reported as “orally bioavailable”. In addition, the tumor regression result with xenograft tumor models is on record as “causes tumor regression”. In addition, the “apoptosis of endothelial cells and tumor cells” value in series [2] is “rapidly induces apoptosis”. Also, in series [3], the bone lesions entry is on record as “near complete resolution of bone lesions”, the bone pain result is recorded as “marked reduction”, the measurable disease entry was “reduction in measurable disease” and the “total serum alkaline phosphatase (tALP) levels” value is “marked reduction”.

With `COc1cc2c(Oc3ccc(NC(=O)C4(C(=O)Nc5ccc(F)cc5)CC4)cc3F)ccnc2cc1OCCCN1CCOCC1.O` [crystalline Compound 1, N-[3-fluoro-4-({6-(methyloxy)-7-[(3-morpholin-4-ylpropyl)oxy]quinolin-4-yl}oxy)phenyl]-N′-(4-fluorophenyl)cyclopropane-1,1-dicarboxamide crystalline hydrate], the “weight gain (GVS)” value in series [4] stood at 2.5%.
